Measurements reported in US20250221996A1, “HETEROCYCLIC COMPOUNDS, COMPOSITIONS THEREOF, AND METHODS OF TREATMENT THEREWITH” (BeiGene, Ltd., priority 2022, published 2025).

System: pERK1/2(THR202/TYR204) level in AsPC-1 cells
Experiment: pERK assay (HTRF) in AsPC-1 cell line
Type: cell-based
Settings: Homo sapiens, ASPC1, 2 h, 2 h compound treatment
Description: AsPC-1 cell line was used in this study. Cells were maintained in RPMI-1640 supplemented with 10% fetal bovine serum (Thermo Fisher), 50 units/mL penicillin and streptomycin (Thermo Fisher) and kept at 37° C. in a humidified atmosphere of 5% CO2 in air. Cells were reinstated from frozen stocks that were laid down within 30 passages from the original cells purchased. 30000 cells per well were seeded into a 96-well plate and incubated overnight. Cells were treated with a 10-point dilution series. The final compound concentration is from 0 to 10 μM. After 2 h compound treatment, cells were lysed, and the pERK1/2(THR202/TYR204) level in the cell lysates was detected by HTRF kit (Cisbio). In brief, a total of 16 μL of cell lysate from each well of a 96-well plate was transferred to a 384-well white assay plate. Lysate from each well was incubated with 2 μL of Eu3+-cryptate (donor) labeled anti-phospho-ERK1/2 and 2 μL of D2 (acceptor) labeled anti-phospho-ERK1/2 antibodies (Cisbio) overnight in dark at room temperature. When donor and acceptor are in close proximity, excitation of the donor with laser triggers a Fluorescence Resonance Energy Transfer (FRET) towards the acceptor, which in turn fluoresces at 655 nm wavelength. FRET signals were measured using a PHERAstar FSX reader (BMG Labtech). IC50 determination was performed by fitting the curve of percent inhibition versus the log of the inhibitor concentration using Dotmatics.

Row | SMILES | IC50 [nM]
1 | COC(=O)N1CC(COc2nc(N3CC4CCC(C3)N4)c3cc(C(F)(F)F)c(-c4ccc(F)c5sc(N)c(C#N)c45)c(F)c3n2)(OC)C1 [Example 20, methyl 3-(((7-(2-amino-3-cyano-7-fluorobenzo[b]thiophen-4-yl)-4-(3,8-diazabicyclo[3.2.1]octan-3-yl)-8-fluoro-6-(trifluoromethyl)quinazolin-2-yl)oxy)methyl)-3-methoxyazetidine-1-carboxylate] | 188
2 | N#Cc1c(N)sc2c(F)ccc(-c3c(C(F)(F)F)cc4c(N5CC6CCC(C5)N6)nc(OCC56COC(CO)(C5)C6)nc4c3F)c12 [Example 21, 4-(4-(3,8-diazabicyclo[3.2.1]octan-3-yl)-8-fluoro-2-((1-(hydroxymethyl)-2-oxabicyclo[2.1.1]hexan-4-yl)methoxy)-6-(trifluoromethyl)quinazolin-7-yl)-2-amino-7-fluorobenzo[b]thiophene-3-carbonitrile] | 760
3 | N#Cc1c(N)sc2c(F)ccc(-c3c(C(F)(F)F)cc4c(N5CC6CCC(C5)N6)nc(OCC5CCOCC5)nc4c3F)c12 [Example 23, 4-(4-(3,8-diazabicyclo[3.2.1]octan-3-yl)-8-fluoro-2-((tetrahydro-2H-pyran-4-yl)methoxy)-6-(trifluoromethyl)quinazolin-7-yl)-2-amino-7-fluorobenzo[b]thiophene-3-carbonitrile] | 334
4 | Cn1ccnc1N1CC(COc2nc(N3CC4CCC(C3)N4)c3cc(C(F)(F)F)c(-c4ccc(F)c5sc(N)c(C#N)c45)c(F)c3n2)C1 [Example 24, 4-(4-(3,8-diazabicyclo[3.2.1]octan-3-yl)-8-fluoro-2-((1-(1-methyl-1H-imidazol-2-yl)azetidin-3-yl)methoxy)-6-(trifluoromethyl)quinazolin-7-yl)-2-amino-7-fluorobenzo[b]thiophene-3-carbonitrile] | 200
5 | N#Cc1c(N)sc2c(F)ccc(-c3c(C(F)(F)F)cc4c(N5CC6CCC(C5)N6)nc(OCC5(F)CCOC5)nc4c3F)c12 (stereo not drawn) [Example 25, 4-(4-(3,8-diazabicyclo[3.2.1]octan-3-yl)-8-fluoro-2-((3-fluorotetra hydrofuran-3-yl)methoxy)-6-(trifluoromethyl)quinazolin-7-yl)-2-amino-7-fluoro benzo[b]thiophene-3-carbonitrile] | 201
6 | N#Cc1c(N)sc2c(F)ccc(-c3c(C(F)(F)F)cc4c(N5CC6CCC(C5)N6)nc(OCC5(C(F)(F)F)CCOC5)nc4c3F)c12 (stereo not drawn) [Example 26, 4-(4-(3,8-diazabicyclo[3.2.1]octan-3-yl)-8-fluoro-6-(trifluoromethyl)-2-((3-(trifluoromethyl)tetrahydrofuran-3-yl)methoxy)quinazolin-7-yl)-2-amino-7-fluorobenzo[b]thiophene-3-carbonitrile] | 1460
7 | CC1(O)COCC1COc1nc(N2CC3CCC(C2)N3)c2cc(C(F)(F)F)c(-c3ccc(F)c4sc(N)c(C#N)c34)c(F)c2n1 (stereo not drawn) [Example 27, 4-(4-(3,8-diazabicyclo[3.2.1]octan-3-yl)-8-fluoro-2-((4-hydroxy-4-methyltetrahydrofuran-3-yl)methoxy)-6-(trifluoromethyl)quinazolin-7-yl)-2-amino-7-fluorobenzo[b]thiophene-3-carbonitrile] | 975
8 | COC1(COc2nc(N3CC4CCC(C3)N4)c3cc(C(F)(F)F)c(-c4ccc(F)c5sc(N)c(C#N)c45)c(F)c3n2)COC1 [Example 28, 4-(4-(3,8-diazabicyclo[3.2.1]octan-3-yl)-8-fluoro-2-((3-methoxyoxetan-3-yl)methoxy)-6-(trifluoromethyl)quinazolin-7-yl)-2-amino-7-fluorobenzo[b]thiophene-3-carbonitrile] | 78
9 | CC12CC(COc3nc(N4CC5CCC(C4)N5)c4cc(C(F)(F)F)c(-c5cc(O)cc6ccccc56)c(F)c4n3)(CO1)C2 [Example 29, 4-(4-(3,8-diazabicyclo[3.2.1]octan-3-yl)-8-fluoro-2-((1-methyl-2-oxabicyclo[2.1.1]hexan-4-yl)methoxy)-6-(trifluoromethyl)quinazolin-7-yl)naphthalen-2-ol] | > 10000
10 | N#Cc1c(N)sc2c(F)ccc(-c3c(C(F)(F)F)cc4c(N5CC6CCC(C5)N6)nc(OCC56COC(C#N)(C5)C6)nc4c3F)c12 [Example 30, 4-(((7-(2-amino-3-cyano-7-fluorobenzo[b]thiophen-4-yl)-4-(3,8-diazabicyclo[3.2.1]octan-3-yl)-8-fluoro-6-(trifluoromethyl)quinazolin-2-yl)oxy)methyl)-2-oxabicyclo[2.1.1]hexane-1-carbonitrile] | 71
11 | CC1(COc2nc(N3CC4CCC(C3)N4)c3cc(C(F)(F)F)c(-c4ccc(F)c5sc(N)c(C#N)c45)c(F)c3n2)CN(C(=O)C2CC2)C1 [Example 31, 4-(4-(3,8-diazabicyclo[3.2.1]octan-3-yl)-2-((1-(cyclopropanecarbonyl)-3-methylazetidin-3-yl)methoxy)-8-fluoro-6-(trifluoromethyl)quinazolin-7-yl)-2-amino-7-fluorobenzo[b]thiophene-3-carbonitrile] | 299
12 | CCC1(COc2nc(N3CC4CCC(C3)N4)c3cc(C(F)(F)F)c(-c4ccc(F)c5sc(N)c(C#N)c45)c(F)c3n2)COC1 [Example 32, 4-(4-(3,8-diazabicyclo[3.2.1]octan-3-yl)-2-((3-ethyloxetan-3-yl)methoxy)-8-fluoro-6-(trifluoromethyl)quinazolin-7-yl)-2-amino-7-fluorobenzo[b]thiophen-3-carbonitrile] | 110
13 | N#Cc1c(N)sc2c(F)ccc(-c3c(C(F)(F)F)cc4c(N5CC6CCC(C5)N6)nc(OCC5CC6(COC6)C5)nc4c3F)c12 [Example 33, 4-(2-((2-oxaspiro[3.3]heptan-6-yl)methoxy)-4-(3,8-diazabicyclo [3.2.1]octan-3-yl)-8-fluoro-6-(trifluoromethyl)quinazolin-7-yl)-2-amino-7-fluoro benzo[b]thiophene-3-carbonitrile] | 163
14 | CC(F)(F)C1(COc2nc(N3CC4CCC(C3)N4)c3cc(C(F)(F)F)c(-c4ccc(F)c5sc(N)c(C#N)c45)c(F)c3n2)COC1 [Example 34] | 81
15 | N#CCC1(COc2nc(N3CC4CCC(C3)N4)c3cc(C(F)(F)F)c(-c4ccc(F)c5sc(N)c(C#N)c45)c(F)c3n2)CCOCC1 [Example 35, 4-(4-(3,8-diazabicyclo[3.2.1]octan-3-yl)-2-((4-(cyanomethyl)tetra hydro-2H-pyran-4-yl)methoxy)-8-fluoro-6-(trifluoromethyl)quinazolin-7-yl)-2-amino-7-fluorobenzo[b]thiophene-3-carbonitrile] | 275
16 | CC(=O)N1CC(F)(COc2nc(N3CC4CCC(C3)N4)c3cc(C(F)(F)F)c(-c4ccc(F)c5sc(N)c(C#N)c45)c(F)c3n2)C1 [Example 36, 4-(2-((1-acetyl-3-fluoroazetidin-3-yl)methoxy)-4-(−3,8-diazabicyclo[3.2.1]octan-3-yl)-8-fluoro-6-(trifluoromethyl)quinazolin-7-yl)-2-amino-7-fluorobenzo[b]thiophene-3-carbonitrile] | 250
17 | N#CCC1(COc2nc(N3CC4CCC(C3)N4)c3cc(C(F)(F)F)c(-c4ccc(F)c5sc(N)c(C#N)c45)c(F)c3n2)CCOC1 (stereo not drawn) [Example 37, 4-(4-(3,8-diazabicyclo[3.2.1]octan-3-yl)-2-((3-(cyanomethyl)tetra hydrofuran-3-yl)methoxy)-8-fluoro-6-(trifluoromethyl)quinazolin-7-yl)-2-amino-7-fluorobenzo[h]thiophene-3-carbonitrile] | 119
18 | CC1(COc2nc(N3CC4CCC(C3)N4)c3cc(C(F)(F)F)c(-c4ccc(F)c5sc(N)c(C#N)c45)c(F)c3n2)CN(S(C)(=O)=O)C1 [Example 38, 4-(4-(3,8-diazabicyclo[3.2.1]octan-3-yl)-8-fluoro-2-((3-methyl-1-(methylsulfonyl)azetidin-3-yl)methoxy)-6-(trifluoromethyl)quinazolin-7-yl)-2-amino-7-fluorobenzo[b]thiophene-3-carbonitrile] | 180
19 | COC1(COc2nc(N3CC4CCC(C3)N4)c3cc(C(F)(F)F)c(-c4ccc(F)c5sc(N)c(C#N)c45)c(F)c3n2)CN(C(C)=O)C1 [Example 39, 4-(2-((1-acetyl-3-methoxyazetidin-3-yl)methoxy)-4-(3,8-diazabicyclo [3.2.1]octan-3-yl)-8-fluoro-6-(trifluoromethyl)quinazolin-7-yl)-2-amino-7-fluorobenzo[b]thiophene-3-carbonitrile] | 495
20 | CC(=O)N1CC2(COc3nc(N4CC5CCC(C4)N5)c4cc(C(F)(F)F)c(-c5ccc(F)c6sc(N)c(C#N)c56)c(F)c4n3)CC1C2 [Example 40, 4-(2-((2-acetyl-2-azabicyclo[2.1.1]hexan-4-yl)methoxy)-4-(3,8-diazabicyclo[3.2.1]octan-3-yl)-8-fluoro-6-(trifluoromethyl)quinazolin-7-yl)-2-amino-7-fluorobenzo[b]thiophene-3-carbonitrile] | 236
21 | COCCNC1C[C@H]2CC[C@@H]1N2c1nc(OCC23COC(C2)C3)nc2c(F)c(-c3ccc(F)c4sc(N)c(C#N)c34)c(C(F)(F)F)cc12 (stereo partly drawn) [Example 41, 4-(2-((2-oxabicyclo[2.1.1]hexan-4-yl)methoxy)-8-fluoro-4-((1S,4R)-2-((2-methoxyethyl)amino)-7-azabicyclo[2.2.1]heptan-7-yl)-6-(trifluoromethyl)quinazolin-7-yl)-2-amino-7-fluorobenzo[b]thiophene-3-carbonitrile] | 860
